In patent US9829481B2, “Senescence tracers” (Eberhard Karls Universitaet Tuebingen Medizinische Fakultaet, priority 2012, dated 2017):

Tests used:
Assay type in all cases: cell-based
[1] = test system: HCT116 cells (colorectal carcinoma cell line); assay: Lysosome staining with LysoTracker; conditions: presence vs absence of Doxorubicin
Source text: (§1) FIG. 3: Graph of staining signals obtained for HCT116 and MCF7 cells stained with LysoTracker® both in the presence and absence of Doxorubicin.

[2] = test system: MCF7 cells (breast cancer cell line); assay: Lysosome staining with LysoTracker; conditions: presence vs absence of Doxorubicin
Source text: as §1

[3] = test system: MCF7 cells (breast cancer cell line); assay: Senescence β-galactosidase staining, light microscopy; conditions: 250 nM Doxorubicin for 24 hours
Protocol: FIG. 2: Light microscope pictures of β-gal-stained HCT116 and MCF7 cells with and with out 250 nM Doxorubicin treatment.
To stimulate HCT116 (colorectal carcinoma cell line) cells and MCF7 (breast cancer cell line) cells for senescence β-galactosidase staining, the cells were treated with 250nM Doxorubicin for 24 hours. Doxorubicin interacts with DNA by intercalation and inhibits the progression of the enzyme topoisonerase II.

[4] = test system: HCT116 cells (colorectal carcinoma cell line); assay: FACS analysis of labelling of senescent (Doxorubicin-treated) cells; conditions: with vs without 250 nM Doxorubicin, labeled with 40 ng/ml compound, 20 min, 37° C., 5% CO2
Protocol: (§2) FIG. 1: FACS-analysis data of the compound of Example 5 in HCT116 cells (colorectal carcinoma cell line) and MCF7 cells (breast cancer cell line) with and with out 250 nM Doxorubicin treatment.
(§3) MCF7 cells with (senescence +) and without 250 nM Doxorubicin treatment. The cells were incubated 20 min in 37° C. with 5% CO2.
(§4) To show the capability of the compounds of the invention to mark and visualise senescent cells, HCT116 cells (colorectal carcinoma cell line) and MCF7 cells (breast cancer cell line) were incubated 20 min at 37° C. with 5% CO2 in the presence and absence of Doxorubicin. The cells were then labeled with 40 ng/ml of the compound of Example 5.
(§5) To show the capability of the compounds of the invention to mark and visualise senescent cells, HCT116 cells (colorectal carcinoma cell line) and MCF7 cells (breast cancer cell line) were incubated 20 min in 37° C. with 5% CO2. The cells were then labeled with 40 ng/ml of the compound of Example 2.

[5] = test system: MCF7 cells (breast cancer cell line); assay: as above; conditions: with vs without 250 nM Doxorubicin, labeled with 40 ng/ml compound, 20 min, 37° C., 5% CO2
Protocol: as §2, §3, §4, §5

| Compound | lysosome staining signal compared to untreated cells [1] | lysosome staining signal compared to untreated cells [2] | β-gal expression (senescence staining) [3] | enrichment of the labeled compound in Doxorubicin-treated (senescent) cells (FACS) [4] | enrichment of the labeled compound in Doxorubicin-treated (senescent) cells (FACS) [5] |
| --- | --- | --- | --- | --- | --- |
| COc1cccc2c1C(=O)c1c(O)c3c(c(O)c1C2=O)C[C@@](O)(C(=O)CO)C[C@@H]3O[C@H]1C[C@H](N)[C@H](O)[C@H](C)O1 [Doxorubicin] | enhanced positive lysosome staining | enhanced positive lysosome staining | strong expression of β-gal | – | – |
| CN(C)c1cccc2c(S(=O)(=O)NCCNc3ccnc4cc(Cl)ccc34)cccc12 [Example 2] | – | – | – | enhanced enrichment | enhanced enrichment |
| CCN(CC)c1ccc2nc3c4cc(OCCCS[C@H]5O[C@@H](C)[C@@H](O)[C@@H](O)[C@@H]5O)ccc4c(=O)cc-3oc2c1 [Example 5] | – | – | – | – | enhanced enrichment |
